“And” between values parts separate entries of the source, which are not always exact repeats. Identical values can stand only once. “Also recorded” adds a separate entry of the source.
Columns and labels:
[1] = test system: MCF-7 human breast carcinoma; assay: Efficacy in nude mouse xenograft model of MCF-7 human breast carcinoma; format: in vivo; settings: for % TGI (tumor growth inhibition): D25, relative to the control group, Faslodex 5.0 mg/animal, Tamoxifen 1 mg/animal; for % TGI (tumor growth inhibition) / median tumor volume: MCLA-128 25 mg/kg i.p.; for median tumor volume: D25, Faslodex 5.0 mg/animal s.c. qwk×5, Tamoxifen 1 mg/animal s.c. qod×15; for P relative to the control group: D25 tumor volumes, Mann-Whitney test; for anti-tumor efficacy / survival benefit (in words): MCF-7 nude mouse xenograft model; for Volume (mm^3) of xenograft MCF-7 tumors / Weight (mgs) of xenograft MCF-7 tumors: individual tumors of sampling groups 8-10 for pharmacodynamic analysis, 8 day treatment, harvested 24 hours after last dose
Procedure: MCLA-128 was evaluated as monotherapy and in combination with the SERM Tamoxifen and SERD Fulvestrant (Faslodex®) for efficacy in a nude mouse xenograft model of estrogen responsive MCF-7 human breast carcinoma. The study design also included tumor collection for downstream analysis.
Treatments began on D1 in mice with established subcutaneous MCF-7 tumors. The study endpoint was intended to be a tumor volume endpoint of 1000 mm3 45 days, whichever came first. […] Tumor regressions, mean tumor growth, and treatment tolerability also were considered.
The animals were fed ad libitum water (reverse osmosis, 1 ppm Cl) and NIH 31 Modified and Irradiated Lab Diet® consisting of 18.0% crude protein, 6.0% crude fat, and 5.0% crude fiber. The mice were housed on irradiated Enrich-o'Cobs™ Laboratory Animal Bedding in static 85 microisolators on a 12-hour light cycle at […] (68-72° F.) and 40-60% humidity.
Three days prior to tumor cell implantation, estrogen pellets (0.36 mg estradiol, 60-day release, Innovative Research of America, Sarasota, FL) were implanted subcutaneously between the scapulae of all test animals using a sterilized trocar.
Xenografts were initiated with cultured MCF-7 human breast carcinoma cells. Tumor cells were grown to mid-log phase in RPMI-1640 medium containing 10% fetal bovine serum, 100 units/mL penicillin G, 100 μg/mL streptomycin sulfate, 2 mM glutamine, 10 mM HEPES, 0.075% sodium bicarbonate and 25 μg/mL gentamicin. On the day of tumor cell implant, the cells were trypsinized, pelleted, and resuspended in phosphate buffered saline (PBS) at a concentration of 1×10e8 cells/mL. Each test mouse received 1×10e7 MCF-7 cells implanted subcutaneously in the right flank, and tumor growth was monitored as their mean volume approached the desired 100 to 150 mm3 range.
Nineteen days after tumor cell implantation, designated as D1 of the study, the mice were placed into six groups of 15 animals and four groups of six animals, Individual tumor volumes ranged from 75 to 196 mm3 and group mean tumor volumes of 134-137 mm3 on D1. Tumor weight was estimated with the assumption that 1 mg is equivalent to 1 mm3 of tumor volume.
MCLA-128 was stored at 4° C., was provided pre-formulated at 2.5 mg/mL and ready to dose as 25 mg/kg in a 10 mL/kg dose volume, and was protected from light during storage and handling. Tamoxifen (Sigma-25 Aldrich. Lot No. WXBB5732V) was received as a powder and was stored at 4° C. protected from light. Each week, a 5 mg/mL dose solution was prepared in corn oil, and each mouse received 0.2 mL for a dose of 1 mg/animal. The dose solution was stored at 4° C. Fulvestrant tradename Faslodex® (AstraZeneca, Lot No. LV032, LW466, and LX432) was received as 50 mg/mL stock solution that was stored at 4° C. Each dosing day, the stock was diluted in corn oil to 25 mg/mL, and each mouse received 0.2 mL for a dose of 5 mg/animal.
Groups 1 and 7 served as controls for efficacy and sampling, respectively, and received MCLA-128 vehicle intraperitoneally (i.p.) on D1, 4, 8, 11, 15, 18, 22, 25, and 29 and corn oil subcutaneously (s.c.) every other day for fifteen doses (qod×15). Groups 2 and 8 were administered MCLA-128 at 25 mg/kg, i.p., on the same schedule as MCLA-128 vehicle. Groups 3 and 9 were administered Faslodex® at 5.0 mg/animal, s.c., once weekly for five weeks (qwk×5). Group 4 was administered Tamoxifen at 1 mg/animal, s.c., qod×15. Groups 5 and 10 received MCLA-128 and Faslodex®, on the regimens described above. Group 6 received MCLA-128 and Tamoxifen on the regimens described above.
MCLA-128 was administered at a 10 mL/kg dose volume, scaled to the individual body weight of each animal.

HER2:HER3 dimers = assay: VeraTag assay HER2:HER3 dimers in MCF-7 xenograft tumors; format: in vivo, human
Procedure: (§3) Modulation of levels of total HER2, total HER3 and HER2:HER3 dimers in MCF-7 tumors after 8 day treatment period. […] 24 hours after the last dose, tumors were harvested, processed to FFPE and subjected to VeraTag analysis for the indicated assays. Five independent tumors per treatment group were used for the final analysis. A statistical t-test compared all groups independently. * indicates P<0.01.
(§4) All formalin-fixed tumors from example 2 were processed to FFPE blocks. The initial VeraTag assay analysis (round 1) was performed with 3 tumors per group
(§5) Prior to the VeraTag analysis, tumors were sectioned and stained with hematoxylin-eosin to determine the percentage of tumor content. Microlaser capture was used to grossly remove any non-tumor content. The initial round of analysis included the following five VeraTag assays: total HER2, total HER3, HER2:HER3 dimers, HER3-PI3K complexes and phosphorylated HER3.
(§6) The tumors analyzed in Round 1 that had scores close to the average value of the specific assays were included in Round 2 to estimate the inter-assay reproducibility and to ensure the data from the two independent experiments could be combined.

total HER3 = assay: VeraTag assay total HER3 in MCF-7 xenograft tumors; format: in vivo, human; settings: data from both rounds combined; 8 day treatment
Procedure: as §3, §4, §5, §6

phosphorylated HER3 = assay: VeraTag assay phosphorylated HER3 in MCF-7 xenograft tumors; format: in vivo, human; settings: round 1
Procedure: (§7) The initial VeraTag assay analysis (round 1) was performed with 3 tumors per group
as §5

HER3-PI3K complexes = assay: VeraTag assay HER3-PI3K complexes in MCF-7 xenograft tumors; format: in vivo, human; settings: round 1
Procedure: as §7, §5

Akt = assay: Reverse phase protein array (RPPA) in MCF-7 tumor xenografts: Akt; format: in vivo, human; settings: vs vehicle group, one-way ANOVA; tumors collected at maximum tolerated volume or day 39
Source text: (§1) FIG. 9. Reverse phase protein array (RPPA) in MCF-7 tumor xenografts treated with vehicle, MCLA-128, Fulvestrant, Tamoxifen, MCLA-128+ Fulvestrant or MCLA-128+ Tamoxifen. Proteins detected in this assay included (phospho)-Akt and (phospho)-HER3 (full data provided in Appendix 4). One-way ANOVA compared levels in all tumors derived from treatment groups with those derived from the PBS group. ** indicates P<0.01.
(§2) Tumors from groups 1-6 were collected when they had reached the maximum tolerated volume, or at the end of the experiment at day 39, which was 10 days after the last dose. Per treatment group, six tumors were included in the Reverse phase protein array (RPPA). The selection of tumors was made so that the average tumor size of the 6 specimens was close to that of the whole group. RPPA analysis was performed as follows: tumors were sectioned and placed on immunohistochemistry slides. Stromal and inflammatory content was macrodissected to purify for tumors cells. Protein lysates were prepared and protein content was quantified. […] Reverse phase protein array (RPPA) data were analyzed using one-way ANOVA to detect significant differences between the treatment groups and the vehicle group. […] Total ERK levels were increased in the single agent groups only, no differences were measured in the other groups or in the phosphorylated ERK analysis. […]

HER2 = assay: Reverse phase protein array (RPPA) in MCF-7 tumor xenografts: HER2; format: in vivo, human; settings: vs vehicle group, one-way ANOVA
Source text: as §1, §2

HER3 [2] = assay: Reverse phase protein array (RPPA) in MCF-7 tumor xenografts: HER3; format: in vivo, human; settings: vs vehicle group, one-way ANOVA
Source text: as §1, §2

HER3 [3] = settings: in vitro and in vivo; cited from earlier work
total HER2 = assay: VeraTag assay total HER2 in MCF-7 xenograft tumors; settings: data from both rounds combined; 8 day treatment
Procedure: as §3, §4, §5, §6

[4] = test system: human HBCx-34 breast tumor xenograft; assay: Antitumor efficacy in HBCx-34 patient-derived breast cancer xenograft (study XTS-1521); format: in vivo, mouse
Procedure: Antitumor efficacy of an HER2/HER3 targeting antibody was determined in the context of a combination treatment together with an aromatase inhibitor. […] It was used as single agent and in combination with the aromatase inhibitor Letrozole. The hormone-dependent HBCx-34 patient-derived breast cancer xenograft model established in immunodeficient mice was used as an example of a breast cancer.
The HBCx-34 PDX model was derived from a treatment-naïve primary breast infiltrating ductal carcinoma.
Tumor-bearing mice received estrogen diluted in drinking water (β-oestradiol, 8.5 mg/l), from the date of tumor implant to the date of inclusion. During the treatment period, mice were not supplemented with estrogen.
Tumors of the same passage were transplanted subcutaneously onto 6-24 mice (donor mice, passage (n−1)). When these tumors reached 1000 to 2000 mm^3, donor mice were sacrificed by cervical dislocation, tumors were aseptically excised and dissected. After removing necrotic areas, tumors were cut into fragments measuring approximately 20 mm^3 and transferred in culture medium before grafting.
95 mice were anaesthetized with 100 mg/kg ketamine hydrochloride (batch 5D92, Exp: 2017/03, Virbac) and 10 mg/kg xylazine (batch KP0AX9X, Exp: 2017/08, Bayer), and then skin was aseptized with a chlorhexidine solution, incised at the level of the interscapular region, and a 20 mm^3 tumor fragment was placed in the subcutaneous tissue. Skin was closed with clips. All mice from the same experiment were implanted on the same day.
Treatments were randomly attributed to boxes housing up to 5 mice and were initiated 36 days post implantation of the tumor (42% inclusion rate). The study was terminated following 57 days after the start of treatment.
Tumor volume was evaluated by measuring tumor diameters, with a calliper, biweekly during the experimental period.
The formula TV (mm3)=[length (mm)×width (mm)2]/2 was used, where the length and the width are the longest and the shortest diameters of the tumor, respectively.
A total of 4 groups were used as summarized in the scheme below. Each group initially included 10 mice.
All treatment doses were body weight adjusted at each injection.

[5] = test system: total HER2, total HER3, HER2:HER3 dimers, HER3-PI3K complexes and phosphorylated HER3; assay: VeraTag assays (five assays) on MCF-7 xenograft tumors; format: in vivo, human; settings: round 1, 3 tumors per group
Procedure: Xenograft mice were treated for 8 days with a total of 3 doses of MCLA-128 or 2 doses of Fulvestrant or the combination thereof. 24 hours after the last dose, tumors were harvested, processed to FFPE and subjected to VeraTag analysis for the indicated assays. Five independent tumors per treatment group were used for the final analysis. A statistical t-test compared all groups independently. * indicates P<0.01.
as §7, §5

[6] = test system: cells stimulated with high concentrations of heregulin (HRG); assay: In vitro potency in heregulin-stimulated cells; format: cell-based
[7] = MCLA-128 25 mg/kg i.p., Letrozole […] p.o. qdx57
Procedure: All animals were weighed biweekly during the experimental period.
Toxicity of the different treatments was determined as: body weight loss percent (% BWL)=100−(mean BWx/mean BW0×100), where BWx is the mean BW at any day during the treatment and BW0 is the mean BW on the 1st day of treatment.

[8] = MCLA-128 25 mg/kg IP, Letrozole […] PO qdx57

Molecule: C[C@]12CC[C@@H]3c4ccc(O)cc4C[C@@H](CCCCCCCCC[S+]([O-])CCCC(F)(F)C(F)(F)F)[C@H]3[C@@H]1CC[C@@H]2O (stereo partly drawn) [Fulvestrant]
- % TGI (tumor growth inhibition) [1]: 52%
- median tumor volume [1]: 288 mm3
- P relative to the control group [1]: < 0.001
- anti-tumor efficacy / survival benefit (in words) [1]: significantly reduced tumor growth
- Volume (mm^3) of xenograft MCF-7 tumors ([1]; listed as Faslodex®): 196 mm^3 (3×) and 172 mm^3 and 144 mm^3
- Weight (mgs) of xenograft MCF-7 tumors ([1]; listed as Faslodex®): 137.9 mgs and 140.1 mgs and 174.4 mgs and 119.7 mgs and 117.3 mgs
- HER2:HER3 dimerization (VeraTag) (HER2:HER3 dimers; data from both rounds combined, 8 day treatment): significantly induced HER2:HER3 dimerization compared to vehicle; also recorded: induces the formation of HER2:HER3 dimers
- HER2:HER3 dimers (VeraTag) (HER2:HER3 dimers; round 1, 3 tumors per group): significantly upregulated the formation of HER2:HER3 dimers
- HER3 expression (VeraTag) (total HER3): slight increase in HER3
- phospho HER3 assay (VeraTag) (phosphorylated HER3): no significant effect
- HER3-PI3K assay (VeraTag) (HER3-PI3K complexes): no significant effect
- Total and phosphorylated Akt levels (RPPA) (Akt): increased
- Total HER2 levels (RPPA) (HER2): significantly increased
- HER3 total levels (RPPA) (HER3 [2]): significantly increased
- HER3 expression in MCF-7 cells (HER3 [3]): upregulate HER3 expression
- HER2 expression levels (VeraTag) (total HER2): significantly higher than in the MCLA-128 single or combined treatment groups; also recorded: significantly higher levels of HER2 expression

Molecule: MCLA-128: ADCC-enhanced IgG1 bispecific antibody that targets the HER2:HER3 dimer
- Best T/C % [4, 8]: 91.14%
- Best TGE % [4, 8]: 31.59%
- T/C % (at control group day end) [4, 8]: 101.56%
- TGI % (at control group day end) [4, 8]: 4.87%
- median TGD × 3 (In days) [4, 8]: 48.64 days
- TFS (Tumor Free Survivor) ([4]; number of complete regressions recorded up to Group Day End): 0
- CR (complete regression) ([4]; number of mice with 0 to 14 mm^3 tumor size during at least 3 consecutive measurements): 0
- TS (Tumor Stabilization) ([4]; number of mice with constant tumor size during at least 6 consecutive measurements): 1/9 and 1
- PR (partial regression) ([4]; number of mice with tumor size lower than initial during at least 6 consecutive measurements): 1/9 and 1
- % TGI (tumor growth inhibition) [1]: 0%
- median tumor volume [1]: 600 mm3
- P relative to the control group [1]: > 0.05
- anti-tumor efficacy / survival benefit (in words) [1]: no anti-tumor efficacy as a single agent
- Volume (mm^3) of xenograft MCF-7 tumors [1]: 144 mm^3 and 256 mm^3 and 221 mm^3 and 288 mm^3 and 320 mm^3
- Weight (mgs) of xenograft MCF-7 tumors [1]: 120.5 mgs and 98.2 mgs and 135.5 mgs and 134 mgs and 207.7 mgs
- effect in any of the VeraTag assays relative to vehicle [5]: no significant effect
- in vitro potency [6]: superior to other anti-HER2 and anti-HER3 antibodies
- tolerability (in words) [7]: well tolerated
- maximum individual body weight loss ([7]; day of maximum as in text): 8.3%
- maximum mean body weight loss ([7]; day of maximum as in text): 0.4%

Reference: patent US12195551B2, “Combination of an ErbB-2/ErbB-3 bispecific antibody with endocrine therapy for breast cancer” (Merus N.V., priority 2017, dated 2025)
